In this experiment the target is T1, FolE2 (Burkholderia thailandensis, UniProt Q2T7N4).
T1 construct: fused on or other part: N-terminal 6xHis tag from pET-28b(+) (NdeI/SacI)
As to the kind of experiment: biochemical. Further details: species or system B. thailandensis. The following applies: read-out: apparent Ki.

On to `C=C1CC[C@H]2C(=C)CC[C@H]3C(=C)C(=O)O[C@@H]3[C@@H]12` [DHL, dehydrocostus lactone], for which the Ki is 87 ± 21 µM.
